Experimental data published in patent US9611286B2, “Ruthenium carbon monoxide releasing molecules and uses thereof” (Alfama, Inc., priority 2011, dated 2017).

Tests used:
Hen Egg White Lysozyme C = molecular target: T1, Hen Egg White Lysozyme C (Gallus gallus, UniProt P00698); test: Hen egg white lysozyme (HEWL) assay, reactivity with proteins by LC-MS; type: binding; conditions: 10 equiv in H2O, room temperature, 10 minutes and 1 hour
T1 construct: one corresponding to the mass of native lysozyme (14305=calculated mass); from tissue; host or cells: hen egg white
T1 sequence (P00698 19-147): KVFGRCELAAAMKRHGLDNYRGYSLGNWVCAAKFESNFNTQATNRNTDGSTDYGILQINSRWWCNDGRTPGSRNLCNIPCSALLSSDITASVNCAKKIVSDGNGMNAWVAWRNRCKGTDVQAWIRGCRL
Text: The hen egg white lysozyme (HEWL) assay was used to assess the reactivity of Compound 1 in the presence of proteins (see, e.g., Santos-Silva, T. et al. J Am Chem Soc (2011) 133, 1192-1195). This paper describes the interactions of CORM-3 with plasma proteins. CORM-3 reacts rapidily with proteins, losing chloride ion, glycinate, and one CO ligand. […] It was observed that CORM-3 reacts faster and has a much weaker efficacy than Compound 1 in this ECM treatment.
Liquid chromatography-mass spectrometry (LC-MS) was performed on a Micromass Quattro API instrument (ESI-TOF-MS) coupled to a Waters Alliance 2795 HPLC using a MassPREP On-Line Desalting Cartridge. […]
Hen Egg White Lysozyme C (PDB code 3b61; UniProtKB/Swiss-Prot code P00698). […] Quantitative determination of lysozyme-ligand binding in the solution and gas phases by electrospray ionisation mass spectrometry follows Veros et al., Rapid Commun. […] A 50 μL aliquot was analyzed by LC-MS (calculated average isotopic mass of the egg white lysozyme=14305.1).
Santos-Silva and co-workers previously describe CORM-3's reactivity towards proteins and formation of a Ru(II) dicarbonyl-lysozyme complex (see, e.g., Santos-Silva et al., J. Am. Chem. Soc. (2011) 133:1192-1195). […] 50 μL aliquots were collected and analyzed by LC-MS over the reaction time (10 minutes and 1 hour). […]

P. falciparum 3D7 = test: In vitro replication of P. falciparum 3D7; type: cell-based, Plasmodium falciparum; conditions: 48 h
Method: The data led the inventors to wonder whether Compound 1 could have a direct anti-parasitic effect on P. berghei ANKA and P. falciparum parasites. To this end, the effect of Compound 1 and the anti-malarial chloroquine (CQ) was monitored on the in vitro replication of P. falciparum 3D7 isolate and P. berghei ANKA for 48 h and 24 h, respectively.

P. berghei ANKA = test: Parasite r18S (pRBC accumulation) in brain by qRT-PCR; type: in vivo, C57BL/6 mice
Method: (§1) Mice were sacrificed, when infected control mice presented signs of ECM, and perfused intracardially with PBS to remove circulating RBC and leukocytes from the organs. RNA was isolated from brains, livers and lungs using Trizol Reagent (Invitrogen, Life technologies), according to the manufacturer's recommendation. The synthesis of the first-strand cDNA from the RNA templates was carried out using the Transcriptor First Strand cDNA Synthesis Kit (Roche). RT-PCR reactions were performed in the presence of SYBER Green (SYBER Green PCR master mix, Applied Biosystems) on an ABI PRISM 7500Fast (Applied Biosystem). Oligonucleotides used for the specific amplification of genes include:
(§2) The relative changes in gene expression between experimental and control groups were calculated by the Pfaffl method using hprt as internal control gene. Statistical Analysis

CD8β = test: CD8-β-chain mRNA expression in brain by qRT-PCR; type: in vivo, C57BL/6 mice
Method: as §1, §2

IFN-γ = IFN-γ mRNA expression in brain by qRT-PCR; type: in vivo, C57BL/6 mice
Method: as §1, §2

[1] = Brain histology (hematoxylin and eosin) in ECM; type: in vivo, C57BL/6 mice; conditions: P. berghei ANKA-infected mice
Method: For evaluation of histological features, mice were deeply anesthetized until cessation of breathing when infected control mice presented signs of ECM or ALI. The livers, lungs, and brains were removed and fixed in 10% buffered formalin for 24-72 h. Four-micron sections were cut from paraffin-embedded tissues and stained with hematoxylin and eosin according to standard procedures. Histological analyses were performed on a Leica microscope DM 2500 (Leica Microsystems).

Structure (SMILES): C[SH]([C@@H]1OC(CO)[C@H](O)[C@H](O)C1O)[Ru]([Cl])([Cl])([CH]=O)([CH]=O)[CH]=O (stereo partly drawn) [Compound 1, Tricarbonyldichloro(methylthiogalactopyranoside) Ru(II)]
- reactivity with HEWL (adduct formation) (Hen Egg White Lysozyme C): forms protein-Ru^II(CO)2 adducts but reacts slower than CORM-3
- inhibition of in vitro growth (P. falciparum 3D7): does not inhibit in vitro growth
- pRBC accumulation in the brain vs Compound 2-treated mice (P. berghei ANKA): significantly lower
- CD8-β-chain mRNA expression in the brain vs Compound 2-treated mice (CD8β): significantly lower
- IFN-γ mRNA expression vs infected Compound 2-treated mice (IFN-γ): reduced
- neuropathologic features in brain sections [1]: less hemorrhages, and the vessels had lower accumulation of pRBC and leukocytes
